Measurements: paper PMC6800648 (Cell chemical biology, 2019)
Numbered stars: 1 amine (or outer) side, 2 acyl side, 3 side chain; on linkers, the order of the positions; unused ones are H or OH. Square brackets hold non-standard residues; d marks the D form. Peptide text beside a SMILES is read from it. * marks the point of attachment. X5 = CN(CCCC[C@H](N[*:1])C(=O)[*:2])Cc1ccc(F)cc1; X8 = O=C([C@H](CCCCN(C1CCC1)C1CCC1)N[*:1])[*:2]; X3 = CN(CCCC[C@H](N[*:1])C(=O)[*:2])Cc1ccccc1; X7 = CN(CCCC[C@H](N[*:1])C(=O)[*:2])C1CCCCC1; X1 = CCCN(CCCC[C@H](N[*:1])C(=O)[*:2])C(C)C; X6 = CN(CCCC[C@H](N[*:1])C(=O)[*:2])C1CCCC1; Lys(Et,iPr) = CCN(CCCC[C@H](N)C(=O)O)C(C)C; Benzoyl(4-tBu) = CC(C)(C)c1ccc(C(=O)*)cc1; X9 = O=C([C@H](CCCCN1CCCCC1)N[*:1])[*:2]; Lys(Me2) = CN(C)CCCC[C@H](N)C(=O)O

The compounds below were run against T1, CBX7 (Mus musculus, UniProt Q8VDS3) (assay: Polycomb in-vivo Assay).
T1 sequence (Q8VDS3 2-69 limits assumed): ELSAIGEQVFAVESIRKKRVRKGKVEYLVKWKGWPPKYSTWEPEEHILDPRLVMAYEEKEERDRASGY
Assay type: cell-based

`CCN(CCCC[C@H](NC(=O)[C@H](CC(C)C)NC(=O)[C@H](C)NC(=O)[C@H](Cc1ccccc1)NC(=O)c1ccc(C(C)(C)C)cc1)C(=O)N[C@@H](CO)C(=O)OC)C(C)C` [UNC4941, methyl N^2-(4-(tert-butyl)benzoyl)-L-phenylalanyl-L-alanyl-L-leucyl-N^6-ethyl-N^6-isopropyl-L-lysyl-L-serinate] ({Benzoyl(4-tBu)}-FAL[Lys(Et,iPr)]S-OMe) and `CCCN(CCCC[C@H](NC(=O)[C@H](CC(C)C)NC(=O)[C@H](C)NC(=O)[C@H](Cc1ccccc1)NC(=O)c1ccc(C(C)(C)C)cc1)C(=O)N[C@@H](CO)C(=O)OC)C(C)C` [UNC4971, methyl N^2-(4-(tert-butyl)benzoyl)-L-phenylalanyl-L-alanyl-L-leucyl-N^6-isopropyl-N^6-propyl-L-lysyl-L-serinate] ({Benzoyl(4-tBu)}-FAL[X1]S-OMe) are within 1.5-fold of each other in EC50: 36.6 ± 1.14 µM for the first, 26.5 ± 3.24 µM for the second.

Compared with `COC(=O)[C@H](CO)NC(=O)[C@H](CCCCN(C)C)NC(=O)[C@H](CC(C)C)NC(=O)[C@H](C)NC(=O)[C@H](Cc1ccccc1)NC(=O)c1ccc(C(C)(C)C)cc1` [UNC5352, methyl N^2-(4-(tert-butyl)benzoyl)-L-phenylalanyl-L-alanyl-L-leucyl-N^6,N^6-dimethyl-L-lysyl-L-serinate] ({Benzoyl(4-tBu)}-FAL[Lys(Me2)]S-OMe), `COC(=O)[C@H](CO)NC(=O)[C@H](CCCCN(C)C1CCCC1)NC(=O)[C@H](CC(C)C)NC(=O)[C@H](C)NC(=O)[C@H](Cc1ccccc1)NC(=O)c1ccc(C(C)(C)C)cc1` [UNC6371, methyl N^2-(4-(tert-butyl)benzoyl)-L-phenylalanyl-L-alanyl-L-leucyl-N^6-cyclopentyl-N^6-methyl-L-lysyl-L-serinate] ({Benzoyl(4-tBu)}-FAL[X6]S-OMe) is 5.2-fold lower in EC50: 105 ± 11.3 µM for the first, about 20 µM for the second. The second is the more potent here.

Compared with `COC(=O)[C@H](CO)NC(=O)[C@H](CCCCN(C1CCC1)C1CCC1)NC(=O)[C@H](CC(C)C)NC(=O)[C@H](C)NC(=O)[C@H](Cc1ccccc1)NC(=O)c1ccc(C(C)(C)C)cc1` [UNC6370, methyl N^2-(4-(tert-butyl)benzoyl)-L-phenylalanyl-L-alanyl-L-leucyl-N^6,N^6-dicyclobutyl-L-lysyl-L-serinate] ({Benzoyl(4-tBu)}-FAL[X8]S-OMe), `COC(=O)[C@H](CO)NC(=O)[C@H](CCCCN(C)C1CCCCC1)NC(=O)[C@H](CC(C)C)NC(=O)[C@H](C)NC(=O)[C@H](Cc1ccccc1)NC(=O)c1ccc(C(C)(C)C)cc1` [UNC6372, methyl N^2-(4-(tert-butyl)benzoyl)-L-phenylalanyl-L-alanyl-L-leucyl-N^6-cyclohexyl-N^6-methyl-L-lysyl-L-serinate] ({Benzoyl(4-tBu)}-FAL[X7]S-OMe) is 3-fold lower in EC50: 13.7 ± 0.535 µM for the first, 4.59 ± 0.292 µM for the second. The second is the more potent here.

Compared with `COC(=O)[C@H](CO)NC(=O)[C@H](CCCCN1CCCCC1)NC(=O)[C@H](CC(C)C)NC(=O)[C@H](C)NC(=O)[C@H](Cc1ccccc1)NC(=O)c1ccc(C(C)(C)C)cc1` [UNC6374, methyl ((S)-2-((S)-2-((S)-2-((S)-2-(4-(tert-butyl)benzamido)-3-phenylpropanamido)propanamido)-4-methylpentanamido)-6-(piperidin-1-yl)hexanoyl)-L-serinate] ({Benzoyl(4-tBu)}-FAL[X9]S-OMe), `COC(=O)[C@H](CO)NC(=O)[C@H](CCCCN(C)Cc1ccccc1)NC(=O)[C@H](CC(C)C)NC(=O)[C@H](C)NC(=O)[C@H](Cc1ccccc1)NC(=O)c1ccc(C(C)(C)C)cc1` [UNC6375, methyl N^6-benzyl-N^2-(4-(tert-butyl)benzoyl)-L-phenylalanyl-L-alanyl-L-leucyl-N^6-methyl-L-lysyl-L-serinate] ({Benzoyl(4-tBu)}-FAL[X3]S-OMe) is 14-fold lower in EC50: 33.1 ± 1.9 µM for the first, 2.36 ± 0.115 µM for the second. The second is the more potent here.

Compound `COC(=O)[C@H](CO)NC(=O)[C@H](CCCCN(C)Cc1ccc(F)cc1)NC(=O)[C@H](CC(C)C)NC(=O)[C@H](C)NC(=O)[C@H](Cc1ccccc1)NC(=O)c1ccc(C(C)(C)C)cc1` [UNC6376, methyl N^2-(4-(tert-butyl)benzoyl)-L-phenylalanyl-L-alanyl-L-leucyl-N^6-(4-fluorobenzyl)-N^6-methyl-L-lysyl-L-serinate] ({Benzoyl(4-tBu)}-FAL[X5]S-OMe) has an EC50 of 2.22 ± 0.194 µM.
